How the values were obtained:
Assay in all cases: Histone peptide microarray
Assay type in all cases: binding, human
PHF21A = conditions: PHF21A; sheet "Array Heatmap"; each array performed twice, total n = 4
How it was run: (§1)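 Purified PHD finger domains fused to GST are screened against 293 synthetic histone peptides bearing one or several post-translational modifications. The protein is used at 0.5 μM, and the signal from four replicate arrays is averaged, with standard deviation given.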

ING2 = conditions: ING2; sheet "Array Heatmap"; each array performed twice, total n = 4
How it was run: as §1

KDM4C (TTP) = conditions: KDM4C (TTP); sheet "Array Heatmap"; each array performed twice, total n = 4
How it was run: as §1

ING4 = conditions: ING4; sheet "Array Heatmap"; each array performed twice, total n = 4
How it was run: as §1

TRIM66 (PB) = conditions: TRIM66 (PB); sheet "Array Heatmap"; each array performed twice, total n = 4
How it was run: as §1

CHD5 (PPCC) = conditions: CHD5 (PPCC); sheet "Array Heatmap"; each array performed twice, total n = 4
How it was run: as §1

BAZ2B = conditions: BAZ2B; sheet "Array Heatmap"; each array performed twice, total n = 4
How it was run: as §1

TAF3 = conditions: TAF3; sheet "Array Heatmap"; each array performed twice, total n = 4
How it was run: as §1

KDM5B (1) = conditions: KDM5B (1); sheet "Array Heatmap"; each array performed twice, total n = 4
How it was run: as §1

KDM5A (1) = conditions: KDM5A (1); sheet "Array Heatmap"; each array performed twice, total n = 4
How it was run: as §1

ING3 = conditions: ING3; sheet "Array Heatmap"; each array performed twice, total n = 4
How it was run: as §1

PHF23 = conditions: PHF23; sheet "Array Heatmap"; each array performed twice, total n = 4
How it was run: as §1

KDM7A = conditions: KDM7A; sheet "Array Heatmap"; each array performed twice, total n = 4
How it was run: as §1

PHF8 = conditions: PHF8; sheet "Array Heatmap"; each array performed twice, total n = 4
How it was run: as §1

PHF2 = conditions: PHF2; sheet "Array Heatmap"; each array performed twice, total n = 4
How it was run: as §1

MORC3 (CW) = conditions: MORC3 (CW); sheet "Array Heatmap"; each array performed twice, total n = 4
How it was run: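 GST-tagged PHD readers, 0.5 μM, probed on a microarray of 293 synthetic histone peptides carrying single or combinatorial PTMs (optimized Petell protocol). Signals are averaged over 4 replicates and expressed as relative binding.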

MLL5 = conditions: MLL5; sheet "Array Heatmap"; each array performed twice, total n = 4
How it was run: as §1

DIDO1 = conditions: DIDO1; sheet "Array Heatmap"; each array performed twice, total n = 4
How it was run: as §1

PHRF1 (RP) = conditions: PHRF1 (RP); sheet "Array Heatmap"; each array performed twice, total n = 4
How it was run: as §1

KDM5A (3) = conditions: KDM5A (3); sheet "Array Heatmap"; each array performed twice, total n = 4
How it was run: as §1

ING1 = conditions: ING1; sheet "Array Heatmap"; each array performed twice, total n = 4
How it was run: as §1

SP140L = conditions: SP140L; sheet "Array Heatmap"; each array performed twice, total n = 4
How it was run: as §1

KDM5B (3) = conditions: KDM5B (3); sheet "Array Heatmap"; each array performed twice, total n = 4
How it was run: as §1

BPTF (PB) = conditions: BPTF (PB); sheet "Array Heatmap"; each array performed twice, total n = 4
How it was run: as §1

CHD5 (PCC) = conditions: CHD5 (PCC); sheet "Array Heatmap"; each array performed twice, total n = 4
How it was run: as §1

CHD4 (PPCC) = conditions: CHD4 (PPCC); sheet "Array Heatmap"; each array performed twice, total n = 4
How it was run: as §1

ING5 = conditions: ING5; sheet "Array Heatmap"; each array performed twice, total n = 4
How it was run: as §1

RAG2 = conditions: RAG2; sheet "Array Heatmap"; each array performed twice, total n = 4
How it was run: as §1

AIRE (PP) = conditions: AIRE (PP); sheet "Array Heatmap"; each array performed twice, total n = 4
How it was run: as §1

PHF13 = conditions: PHF13; sheet "Array Heatmap"; each array performed twice, total n = 4
How it was run: as §1

DPF2 (PPC2W2) = conditions: DPF2 (PPC2W2); sheet "Array Heatmap"; each array performed twice, total n = 4
How it was run: as §1

Row | Substance | Array Heatmap value (peptide array signal) (PHF21A) | Array Heatmap value (peptide array signal) (ING2) | Array Heatmap value (peptide array signal) (KDM4C (TTP)) | Array Heatmap value (peptide array signal) (ING4) | Array Heatmap value (peptide array signal) (TRIM66 (PB)) | Array Heatmap value (peptide array signal) (CHD5 (PPCC)) | Array Heatmap value (peptide array signal) (BAZ2B) | Array Heatmap value (peptide array signal) (TAF3) | Array Heatmap value (peptide array signal) (KDM5B (1)) | Array Heatmap value (peptide array signal) (KDM5A (1)) | Array Heatmap value (peptide array signal) (ING3) | Array Heatmap value (peptide array signal) (PHF23) | Array Heatmap value (peptide array signal) (KDM7A) | Array Heatmap value (peptide array signal) (PHF8) | Array Heatmap value (peptide array signal) (PHF2) | Array Heatmap value (peptide array signal) (MORC3 (CW)) | Array Heatmap value (peptide array signal) (MLL5) | Array Heatmap value (peptide array signal) (DIDO1) | Array Heatmap value (peptide array signal) (PHRF1 (RP)) | Array Heatmap value (peptide array signal) (KDM5A (3)) | also measured
1 | H3K9pro: H3 1-20 [Peptide H3K9pro] | 0.4435 | 0.6039 | 0.4589 | 0.4451 | 0.5807 | 0.5229 | 0.4231 | 0.2557 | 0.6726 | 0.4409 | 0.4734 | 0.5285 | 0.3118 | 0.3451 | 0.4692 | 0.4445 | 0.5292 | 0.6439 | 0.5869 | 0.4398 | Array Heatmap value (peptide array signal) (ING1): 0.5254; Array Heatmap value (peptide array signal) (SP140L): 0.3673; Array Heatmap value (peptide array signal) (KDM5B (3)): 0.4382; Array Heatmap value (peptide array signal) (BPTF (PB)): 0.3368; Array Heatmap value (peptide array signal) (CHD5 (PCC)): 0.7611; Array Heatmap value (peptide array signal) (CHD4 (PPCC)): 0.5901; Array Heatmap value (peptide array signal) (ING5): 0.3309; Array Heatmap value (peptide array signal) (RAG2): 0.2419; Array Heatmap value (peptide array signal) (AIRE (PP)): 0.411; Array Heatmap value (peptide array signal) (PHF13): 0.5854; Array Heatmap value (peptide array signal) (DPF2 (PPC2W2)): 0.7007
2 | H3K14ac (1-32): H3 1-32 | 0.5508 | 0.6065 | 0.5844 | 0.5113 | 0.5901 | 0.6129 | 0.5612 | 0.3178 | 0.7332 | 0.5739 | 0.5035 | 0.5387 | 0.4771 | 0.4423 | 0.4742 | 0.4902 | 0.5315 | 0.6524 | 0.5867 | 0.5824 | Array Heatmap value (peptide array signal) (ING1): 0.5563; Array Heatmap value (peptide array signal) (SP140L): 0.4015; Array Heatmap value (peptide array signal) (KDM5B (3)): 0.5322; Array Heatmap value (peptide array signal) (BPTF (PB)): 0.3702; Array Heatmap value (peptide array signal) (CHD5 (PCC)): 0.9008; Array Heatmap value (peptide array signal) (CHD4 (PPCC)): 0.5914; Array Heatmap value (peptide array signal) (ING5): 0.3965; Array Heatmap value (peptide array signal) (RAG2): 0.2609; Array Heatmap value (peptide array signal) (AIRE (PP)): 0.6762; Array Heatmap value (peptide array signal) (PHF13): 0.6445; Array Heatmap value (peptide array signal) (DPF2 (PPC2W2)): 0.88

Reference: paper PMC6979384, “Characterization of the plant homeodomain (PHD) reader family for their histone tail interactions” (Epigenetics & Chromatin, 2020)
